{"source": "patent US20170087149A9", "about": "“TREATMENT FOR […]” (priority 2013, published 2017)", "test_system": "collapsing trachea", "assay": "Treatment of collapsing trachea in dogs (case reports)", "assay_type": "in vivo, dog", "conditions": "Pomeranian", "protocol": "Upon presentation, the patient had severe dyspnea and coughing.\nOxycodone sustained release was prescribed, 10 mg twice daily. […] When appetite returned (along with resumed coughing) the patient's dosage was adjusted to 2.5 mg twice daily (cutting the 10 mg tablets in quarters). […] On two occasions when the beginning of a cough was observed, a single additional 2.5 mg tablet was administered, followed by return to the original twice-daily dosing regimen.\nThe treatment described in Example 1 has been successfully repeated in two additional dogs diagnosed as having collapsing trachea."}
{"smiles": "O=C(O)C(O)C(O)C(=O)O.Oc1ccc2c(c1)[C@@]13CCCC[C@@]1(O)[C@@H](C2)N(CC1CCC1)CC3", "note": "[Torbutrol, butorphenol]", "values": [{"measurement": "cough (prior treatment, history)", "setting": "history before presentation", "value": "had been controlling the cough"}, {"measurement": "exercise tolerance and panting (prior treatment, history)", "setting": "history before presentation", "value": "highly intolerant to exercise (to the point of having to be carried) and continuously panting"}, {"measurement": "response at presentation (refractory stage)", "setting": "severe intrathoracic collapsing trachea at presentation", "value": "stopped responding"}]}
